This note sets out measurements from paper PMC9455983 (International Journal of Molecular Sciences, 2022).

Assay [1] concerns the target T1, kappa-opioid receptor (KOR) (Cavia porcellus, UniProt P41144).
T1 construct: Guinea pig cortices and cerebella were homogenized using 50 mM Tris, pH 7.4; from tissue; host or cells: guinea pig cortex and cerebellum membranes
The assay is described as follows: KOR radioligand competition binding assay ([3H]U69,593). The arrangement: species or system guinea pig. The conditions noted are these: Kappa screening results. Summed up: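 Guinea pig cortex and cerebellum homogenates in 50 mM Tris pH 7.4 with 10 mM MgCl2, 2 nM [3H]U69,593, 2 h at 25 °C. Unlabeled U50,488 gave the standard curve and nonspecific binding. Filtration on BSA-soaked GF/B filters, scintillation counting; two replicates, repeated twice, mean ± SD.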

The target of assay [2] is T2, delta-opioid receptor (DOR) (Rattus norvegicus, UniProt P33533).
T2 construct: Rat cortices were homogenized using 50 mM Tris, pH 7.4, 10 mM MgCl2-6H2O, 200 µM PMSF; from tissue; host or cells: rat cortex membranes
The experiment in a line: DOR radioligand competition binding assay ([3H]-DPDPE). The conditions noted are these: Delta screening results. Summed up:
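Radioligand was 2 nM [3H]-DPDPE, incubated 2.5 h at 25 °C with homogenized rat cortex (50 mM Tris pH 7.4, 10 mM MgCl2, 200 µM PMSF). Bound ligand separated on GF/B filters and counted; nonspecific binding from unlabeled DPDPE. Values are mean ± SD, two experiments, two replicates each.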

A further assay addresses T3, mu-opioid receptor (MOR) (Rattus norvegicus, UniProt P33535).
T3 construct: Rat cortices were homogenized using 50 mM Tris, pH 7.4, and centrifuged at 16,500 rpm for 10 min; from tissue; host or cells: rat cortex membranes
The assay is described as follows: MOR radioligand competition binding assay ([3H]-DAMGO). The conditions noted are these: Mu screening results. Summed up:
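Competition for 2 nM [3H]-DAMGO binding was measured in rat cortex membrane suspension (50 mM Tris, pH 7.4, plus 2 mg/mL bovine serum). After filtration through GF/B filters pre-soaked in BSA, filter radioactivity was counted. Data are two duplicate experiments reported as mean ± SD.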

The mark [3] stands for this setting: experiment 1, unit inferred, read-out: Ki (Exp 1).
The mark [4] stands for this setting: experiment 2, unit inferred, read-out: Ki (Exp 2).
Where [5] appears, read: mean of Exp 1 and Exp 2, unit inferred, read-out: MEAN (Ki).
The mark [6] stands for this setting: mean of two experiments, read-out: Ki.
Where [7] appears, read: first Ki column, unit not printed (apparently M), read-out: Ki (first column).
Where [8] appears, read: mean of both Ki, unit inferred, read-out: MEAN (Ki).
The mark [9] stands for this setting: second Ki column, unit not printed (apparently M), read-out: Ki (second column).

Like-named read-outs stand apart in the source and are kept apart here.

For the molecule `Cc1cc(O)cc(C)c1C[C@H]1CNC(=N)N1C[C@H](CC(C)C)N1C[C@H](CC(C)C)NC1=N` [1968-59], the Ki in assay [1] (setting [3]) was 223 nM; in assay [1] (setting [4]) it was 313 nM; in assay [1] (setting [5]) it was 268 nM; in assay [1] (setting [6]), 268 nM; in assay [2] (setting [7]) it was 3840 nM; in assay [2] (setting [8]), 4210 nM. Further, the Ki in assay [2] (setting [6]) stood at 4210 nM; in assay [2] (setting [9]) it was 4580 nM; on mu-opioid receptor (MOR) (setting [3]), 166 nM; on mu-opioid receptor (MOR) (setting [4]), 156 nM; on mu-opioid receptor (MOR) (setting [5]), 161 nM; on mu-opioid receptor (MOR) (setting [6]), 161 nM.

Take `Cc1cc(O)cc(C)c1C[C@H]1CN([C@@H](CC(C)C)CN2C(=N)NC[C@@H]2Cc2c(C)cc(O)cc2C)C(=N)N1` [1968-60]: the Ki was 308 nM in assay [1] (setting [3]); 422 nM in assay [1] (setting [4]); 365 nM in assay [1] (setting [5]); 365 nM in assay [1] (setting [6]); 978 nM in assay [2] (setting [7]); 814 nM in assay [2] (setting [8]). Further, the Ki came to 814 nM in assay [2] (setting [6]); 651 nM in assay [2] (setting [9]); 66.4 nM at mu-opioid receptor (MOR) (setting [3]); 71.2 nM on mu-opioid receptor (MOR) (setting [4]); 68.8 nM at mu-opioid receptor (MOR) (setting [5]); 69 nM at mu-opioid receptor (MOR) (setting [6]).

`Cc1cc(O)cc(C)c1C[C@H]1CNC(=N)N1C[C@H](Cc1c(C)cc(O)cc1C)N1C[C@H](Cc2ccccc2)NC1=N` [1968-61]: the Ki was 877 nM in assay [1] (setting [3]); 1230 nM in assay [1] (setting [4]); 1050 nM in assay [1] (setting [5]); 1050 nM in assay [1] (setting [6]); 1060 nM in assay [2] (setting [7]); 1020 nM in assay [2] (setting [8]). The Ki in assay [2] (setting [6]) is 1020 nM; in assay [2] (setting [9]), 985 nM; at mu-opioid receptor (MOR) (setting [3]), 40.3 nM; at mu-opioid receptor (MOR) (setting [4]) it was 56.5 nM; on mu-opioid receptor (MOR) (setting [5]), 48.4 nM; on mu-opioid receptor (MOR) (setting [6]), 48 nM.

For `Cc1cc(O)cc(C)c1C[C@H]1CNC(=N)N1C[C@H](Cc1c(C)cc(O)cc1C)N1C[C@H](Cc2ccc(O)cc2)NC1=N` [1968-62], the Ki in assay [1] (setting [3]) stood at 2300 nM; in assay [1] (setting [4]), 2340 nM; in assay [1] (setting [5]), 2320 nM; in assay [1] (setting [6]) it was 2320 nM; in assay [2] (setting [7]) it was 1530 nM; in assay [2] (setting [8]) it was 1280 nM. For the same molecule, the Ki in assay [2] (setting [6]) is 1280 nM; in assay [2] (setting [9]), 1020 nM; at mu-opioid receptor (MOR) (setting [3]), 64.2 nM; on mu-opioid receptor (MOR) (setting [4]), 78.4 nM; at mu-opioid receptor (MOR) (setting [5]) it was 71.3 nM; at mu-opioid receptor (MOR) (setting [6]), 71 nM.

For the molecule `Cc1cc(O)cc(C)c1C[C@H]1CNC(=N)N1C[C@H](Cc1c(C)cc(O)cc1C)N1C[C@H](CC(C)C)NC1=N` [1968-63], the Ki in assay [1] (setting [3]) came to 1640 nM; in assay [1] (setting [4]), 1470 nM; in assay [1] (setting [5]), 1550 nM; in assay [1] (setting [6]), 1550 nM; in assay [2] (setting [7]), 2270 nM; in assay [2] (setting [8]), 2390 nM. In addition, the Ki in assay [2] (setting [6]) amounted to 2390 nM; in assay [2] (setting [9]), 2510 nM; at mu-opioid receptor (MOR) (setting [3]) it was 62.8 nM; at mu-opioid receptor (MOR) (setting [4]), 98.8 nM; at mu-opioid receptor (MOR) (setting [5]), 80.8 nM; at mu-opioid receptor (MOR) (setting [6]), 81 nM.

Consider `Cc1cc(O)cc(C)c1C[C@H]1CN([C@@H](Cc2c(C)cc(O)cc2C)CN2C(=N)NC[C@@H]2Cc2c(C)cc(O)cc2C)C(=N)N1` [1968-64], for which the Ki in assay [1] (setting [3]) is 2820 nM; in assay [1] (setting [4]), 1590 nM; in assay [1] (setting [5]), 2210 nM; in assay [1] (setting [6]), 2210 nM; in assay [2] (setting [7]), 508 nM; in assay [2] (setting [8]), 579 nM. The Ki in assay [2] (setting [6]) worked out at 579 nM; in assay [2] (setting [9]), 650 nM; on mu-opioid receptor (MOR) (setting [3]), 58.6 nM; at mu-opioid receptor (MOR) (setting [4]), 88 nM; on mu-opioid receptor (MOR) (setting [5]) it was 73.3 nM; on mu-opioid receptor (MOR) (setting [6]), 73 nM.

For `N=C1NC[C@H](Cc2ccccc2)N1C[C@H](Cc1ccccc1)N1C[C@H](Cc2ccccc2)NC1=N` [1968-65], the Ki was 16600 nM in assay [1] (setting [3]); 15200 nM in assay [1] (setting [4]); 15900 nM in assay [1] (setting [5]); 15900 nM in assay [1] (setting [6]); 7340 nM in assay [2] (setting [7]); 7320 nM in assay [2] (setting [8]). Moreover, the Ki amounted to 7320 nM in assay [2] (setting [6]); 7290 nM in assay [2] (setting [9]); 2370 nM at mu-opioid receptor (MOR) (setting [3]); 2830 nM at mu-opioid receptor (MOR) (setting [4]); 2600 nM on mu-opioid receptor (MOR) (setting [5]); 2600 nM on mu-opioid receptor (MOR) (setting [6]).

On to `CC(C)C[C@H]1CN([C@@H](Cc2ccc(O)cc2)CN2C(=N)NC[C@@H]2Cc2ccccc2)C(=N)N1` [1968-66], for which the Ki in assay [1] (setting [3]) came to 2660 nM; in assay [1] (setting [4]), 3320 nM; in assay [1] (setting [5]), 2990 nM; in assay [1] (setting [6]), 2990 nM; in assay [2] (setting [7]), 18200 nM; at mu-opioid receptor (MOR) (setting [3]) it was 2040 nM. In addition, the results for the Ki at mu-opioid receptor (MOR) (setting [4]), on mu-opioid receptor (MOR) (setting [5]) and on mu-opioid receptor (MOR) (setting [6]) were 1990 nM, 2020 nM and 2020 nM, respectively.

As for `Cc1cc(O)cc(C)c1C[C@@H](CN1C(=N)NC[C@@H]1Cc1ccccc1)N1C[C@H](Cc2ccccc2)NC1=N` [1968-67], the Ki in assay [1] (setting [3]) was 1230 nM; in assay [1] (setting [4]) it was 1120 nM; in assay [1] (setting [5]), 1170 nM; in assay [1] (setting [6]), 1170 nM; in assay [2] (setting [7]) it was 828 nM; in assay [2] (setting [8]), 830 nM. The Ki in assay [2] (setting [6]) was 830 nM; in assay [2] (setting [9]), 833 nM; at mu-opioid receptor (MOR) (setting [3]), 230 nM; on mu-opioid receptor (MOR) (setting [4]), 177 nM; at mu-opioid receptor (MOR) (setting [5]) it was 203 nM; at mu-opioid receptor (MOR) (setting [6]), 203 nM.

For the molecule `Cc1cc(O)cc(C)c1C[C@H]1CN([C@@H](Cc2c(C)cc(O)cc2C)CN2C(=N)NC[C@@H]2Cc2ccccc2)C(=N)N1` [1968-68], the Ki came out at 538 nM in assay [1] (setting [3]); 568 nM in assay [1] (setting [4]); 553 nM in assay [1] (setting [5]); 553 nM in assay [1] (setting [6]); 426 nM in assay [2] (setting [7]); 462 nM in assay [2] (setting [8]). Also, the Ki stood at 462 nM in assay [2] (setting [6]); 498 nM in assay [2] (setting [9]); 89.3 nM at mu-opioid receptor (MOR) (setting [3]); 76.7 nM at mu-opioid receptor (MOR) (setting [4]); 83 nM at mu-opioid receptor (MOR) (setting [5]); 83 nM at mu-opioid receptor (MOR) (setting [6]).

For the molecule `CC(C)C[C@H]1CN([C@@H](Cc2ccccc2)CN2C(=N)NC[C@@H]2Cc2ccc(O)cc2)C(=N)N1` [1968-69], the Ki in assay [1] (setting [3]) stood at 2120 nM; in assay [1] (setting [4]), 2130 nM; in assay [1] (setting [5]), 2120 nM; in assay [1] (setting [6]), 2120 nM; in assay [2] (setting [7]) it was 4230 nM; in assay [2] (setting [8]), 4630 nM. The Ki in assay [2] (setting [6]) was determined as 4630 nM; in assay [2] (setting [9]), 5020 nM; at mu-opioid receptor (MOR) (setting [3]) it was 208 nM; on mu-opioid receptor (MOR) (setting [4]), 188 nM; on mu-opioid receptor (MOR) (setting [5]), 198 nM; on mu-opioid receptor (MOR) (setting [6]), 198 nM.

Turning to `N=C1NC[C@H](Cc2ccc(O)cc2)N1C[C@H](Cc1ccc(O)cc1)N1C[C@H](Cc2ccc(O)cc2)NC1=N` [1968-70], the Ki was 11100 nM in assay [1] (setting [3]); 5550 nM in assay [1] (setting [4]); 8320 nM in assay [1] (setting [5]); 8320 nM in assay [1] (setting [6]); 9960 nM in assay [2] (setting [7]); 10800 nM in assay [2] (setting [8]). Besides, the Ki in assay [2] (setting [6]) was found to be 10800 nM; in assay [2] (setting [9]), 11700 nM; at mu-opioid receptor (MOR) (setting [3]), 230 nM; at mu-opioid receptor (MOR) (setting [4]), 282 nM; at mu-opioid receptor (MOR) (setting [5]), 256 nM; on mu-opioid receptor (MOR) (setting [6]) it was 256 nM.

As to `Cc1cc(O)cc(C)c1C[C@H]1CNC(=N)N1C[C@H](Cc1ccc(O)cc1)N1C[C@H](CC(C)C)NC1=N` [1968-71], the Ki in assay [1] (setting [3]) was 373 nM; in assay [1] (setting [4]), 386 nM; in assay [1] (setting [5]) it was 380 nM; in assay [1] (setting [6]), 380 nM; in assay [2] (setting [7]), 3830 nM; in assay [2] (setting [8]), 3430 nM. Further, the Ki in assay [2] (setting [6]) amounted to 3430 nM; in assay [2] (setting [9]) it was 3020 nM; at mu-opioid receptor (MOR) (setting [3]) it was 58 nM; on mu-opioid receptor (MOR) (setting [4]) it was 53 nM; on mu-opioid receptor (MOR) (setting [5]), 55.5 nM; on mu-opioid receptor (MOR) (setting [6]) it was 56 nM.
